Literature values, collected in patent US20110034521A1, “COMPOUNDS AND METHODS FOR TREATING ZINC MATRIX METALLOPROTEASE DEPENDENT DISEASES” (priority 2007, published 2011).

Columns and labels:
[1] = Wojtowwicz-Praga et al. 1997
[2] = Sparano et al. 2004

Compound | water solubility [1] | toxicity [2]
CNC(=O)[C@H](Cc1ccccc1)NC(=O)[C@H](CC(C)C)[C@H](CSc1cccs1)C(=O)NO [Batismastat] | poor water solubility | –
CNC(=O)[C@@H](NC(=O)[C@H](CC(C)C)[C@H](O)C(=O)NO)C(C)(C)C [Marimastat] | – | musculoskeletal toxicity
